# Assay results taken from patent US20240109843A1, “BENZALDEHYDE COMPOUNDS WITH DIRECT POLYMER DESTABILIZING EFFECTS TO TREAT SICKLE CELL DISEASE” (VIRGINIA COMMONWEALTH UNIVERSITY, priority 2018, published 2024).
# “And” between values parts separate entries of the source, which are not always exact repeats. Equal values may be shown once.
# Legend:
# intracellular Hb = biological target: T1, intracellular Hb (Mus musculus, UniProt P01942); assay: In vivo modification of intracellular Hb in wild-type mice; set-up: species or system C57BL/6 mice
# T1 construct: from tissue; host or cells: blood (red cell lysates) of dosed C57BL/6 mice
# T1 sequence (P01942 2-142 limits assumed): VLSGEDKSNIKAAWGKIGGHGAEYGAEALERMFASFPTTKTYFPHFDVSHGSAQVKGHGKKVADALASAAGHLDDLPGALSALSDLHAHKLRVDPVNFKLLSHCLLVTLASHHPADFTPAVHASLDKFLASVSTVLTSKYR
# T1 sequence (P02088 2-147 partner limits assumed): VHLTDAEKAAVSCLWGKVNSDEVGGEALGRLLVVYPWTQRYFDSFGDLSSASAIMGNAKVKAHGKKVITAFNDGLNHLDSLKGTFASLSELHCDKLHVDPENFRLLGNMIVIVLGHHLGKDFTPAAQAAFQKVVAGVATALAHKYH
# Procedure, shortened: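 C57BL/6 mice got a single 150 mg/kg dose, i.p. in 30% PEG300, or i.p. and oral in an alternative excipient. Blood was taken before dosing and at 1, 3 and 6 h (or 1, 3 or 5 h), then lysed. Lysates were analysed by cation-exchange HPLC for Hb adducts and by oxygen equilibrium for the p50 shift.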
# Hb [1] = biological target: T2, Hb (Homo sapiens, UniProt P69905); assay: Oxygen equilibrium curve (OEC) studies with normal whole blood; assay type: cell-based; set-up: Hemoglobin modification, studies using non-sickling AA blood; from tissue; host or cells: non-sickling (AA) human blood, red blood cells; settings: normal whole blood, 0.5, 1, 2 mM
# T2 sequence (P69905 2-142 limits assumed): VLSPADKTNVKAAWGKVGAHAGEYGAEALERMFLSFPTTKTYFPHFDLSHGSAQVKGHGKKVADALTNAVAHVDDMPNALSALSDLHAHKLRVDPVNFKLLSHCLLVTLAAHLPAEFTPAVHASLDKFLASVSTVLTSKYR
# T2 sequence (P68871 2-147 partner limits assumed): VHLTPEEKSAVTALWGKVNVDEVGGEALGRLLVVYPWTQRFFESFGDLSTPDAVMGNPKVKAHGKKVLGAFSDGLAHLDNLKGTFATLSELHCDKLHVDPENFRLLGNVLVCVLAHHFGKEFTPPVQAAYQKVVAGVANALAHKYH
# Procedure, shortened: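 Whole human blood at 30% hematocrit incubated with compound at 0.5, 1.0 or 2.0 mM (DMSO) or without. After equilibration, pO2 and sO2 measured by automated blood gas analyser across saturation levels, and the oxygen equilibrium curve fitted by nonlinear regression.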
# sickle red blood cells = assay: Antisickling study with human sickle blood under 2.5% oxygen; assay type: cell-based; settings: Homo sapiens, Erythrocyte, sickle RBCs, 2.5% oxygen, read-out: sickling inhibition
# Procedure, shortened: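 Homozygous SCD blood at 20% hematocrit preincubated with compound (0.5, 1, 2 mM) under air for 1 h at 37 °C, then under 2.5% O2 for 1 h. Cells fixed in 2% glutaraldehyde without air exposure; sickling scored by bright-field morphology at 40×.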
# Hb [2] = biological target: T2, Hb; assay: Drug partitioning studies, fixed and unfixed Hb adducts in non-sickling AA blood; assay type: cell-based; set-up: Hemoglobin modification, studies using non-sickling AA blood; from tissue; host or cells: non-sickling (AA) human blood, red blood cells; settings: 2 mM
# Procedure, shortened: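 Non-sickling blood was incubated with test molecules and lysed either in water (unfixed) or in 50 mM sodium borohydride (fixed). Hb adducts were quantified by cation-exchange HPLC as a fraction of total Hb. The partitioning ratio is fixed over unfixed modification and reflects intracellular Hb binding after RBC membrane permeation.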
# Hb [3] = biological target: T3, Hb (Mus musculus, UniProt P01942); assay: In vivo Hb oxygen affinity shift (Δp50) in wild-type mice; set-up: species or system C57BL/6 mice; settings: for increase in Hb affinity (Δp50): IP 150 mg/kg
# T3 construct: from tissue; host or cells: blood (red cell lysates) of dosed C57BL/6 mice
# T3 sequence (P01942 2-142 limits assumed): as the sequence (P01942 2-142 limits assumed) above
# T3 sequence (P02088 2-147 partner limits assumed): as the sequence (P02088 2-147 partner limits assumed) above
# Procedure: We tested in vivo pharmacologic (pharmacodynamics) effects of select PP compounds in C57BL/6 mice. The animals were treated with a single intraperitoneal (IP) (150 mg/kg body weight) dose of PP6, PP10, PP14, and TD7, which were formulated with 30% PEG300. Blood samples were obtained prior to treatment (0) and 1, 3 and 6 h post-treatment, via submandibular bleeding, and subjected to hemolysis using standard methods. Clarified lysates, free of cell debris and red blood cell ghosts were analyzed by cation-exchange HPLC to determine the levels of drug-modified hemoglobin (adducts); and to conduct oxygen equilibrium studies to determine degrees of shift in p50 values using methodologies described earlier for in vitro studies on human samples. In a subsequent follow-up experiment, a new excipient obtained from Catalent Pharma Solutions was also used to formulate PP14 and used for a single intraperitoneal (IP) and oral (150 mg/kg body weight) dose. Blood samples were obtained prior to treatment (0) and 1, 3 or 5 h post-treatment, via submandibular bleeding, and used to determine the levels of drug-modified hemoglobin (adducts); and to conduct oxygen equilibrium studies to determine degrees of shift in p50 values as described above.
# [4] = tested on: RBCs from donors with homozygous SCD; assay: Oxygen-independent sickle inhibition in SS blood suspensions under anoxia (100% nitrogen); assay type: cell-based, human; settings: Homo sapiens, 2 mM, 4 biological replicates, read-out: % Sickling Inhibition (Anoxia)
# Procedure, shortened: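 After room-air re-oxygenation for 15 min to reverse sickling, SS blood suspensions were held under 100% nitrogen for 1 h (screening) or up to 2.5 h (time course), with aliquots fixed at set intervals. Sickled versus non-sickled cells were counted by bright-field microscopy to calculate sickle inhibition.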
smiles,measurement,setting,value
"COC(=O)c1ccc(COc2cccc(O)c2C=O)cn1 [PP14, Methyl 5-((2-formyl-3-hydroxyphenoxy)methyl)picolinate]",Hb modification,"intracellular Hb; IP 150 mg/kg, 30% PEG300, 1 hr",7%
same,Hb modification,"intracellular Hb; IP 150 mg/kg, 30% PEG300, 3 hr",13%
same,modified Hb,"intracellular Hb; IP 150 mg/kg, 30% PEG300, 6 h, 150 mg/kg",19.1±0.6% and 19%
same,Hb modification,"intracellular Hb; IP 150 mg/kg, Catalent excipient, 1 hr",21.8±1.6%
same,Hb modification,"intracellular Hb; IP 150 mg/kg, Catalent excipient, 3 hr",37.7±5.0%
same,Hb modification,"intracellular Hb; IP 150 mg/kg, Catalent excipient, 5 hr",51.1±4.3%
same,modified Hb,"intracellular Hb; oral gavage 150 mg/kg, Catalent excipient, 1 hr",14.5±3.7%
same,modified Hb,"intracellular Hb; oral gavage 150 mg/kg, Catalent excipient, 3 hr",16.3±2.2%
same,modified Hb,"intracellular Hb; oral gavage 150 mg/kg, Catalent excipient, 5 hr",17.1±4.4%
same,effect on Hb oxygen binding property (OEC),Hb [1],most significant activities
same,inhibition at 500 µM,sickle red blood cells; 0.5 mM,> 35%
same,inhibition at 1000 µM,sickle red blood cells; 1 mM,> 70%
same,Fixed Adducts (%),Hb [2]; 6 biological replicates,96.1 ± 1.1%
same,Unfixed Adduct (%),Hb [2]; 6 biological replicates,91.8 ± 11.6%
same,Partitioning Ratio (%),Hb [2]; fixed relative to unfixed adducts,102.2 ± 8.0%
same,increase in Hb affinity (Δp50),Hb [3]; 30% PEG300,12%
same,increase in Hb affinity (Δp50),"Hb [3]; Catalent excipient, 5 hr",43.5±7.7%
same,increase in Hb oxygen affinity (Δp50),"Hb [3]; oral gavage 150 mg/kg, Catalent excipient",10.3±1.5%
same,inhibition at 2000 µM,[4],80.5 ± 17.4%
